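These data come from cells grown in 96-well plates and exposed to compound for 48 hours at five concentrations. The concentration for full growth arrest is given as TGI.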
Columns and labels:
Assay in all cases: NCI anticancer screen, dose series, 48 h
CAKI-1 renal = tested on: CAKI-1 renal
DU-145 prostate = tested on: DU-145 prostate
K-562 leukemia = tested on: K-562 leukemia
SW-620 colon = tested on: SW-620 colon
HOP-92 NSCLC = tested on: HOP-92 NSCLC
SR leukemia = tested on: SR leukemia
OVCAR-4 ovarian = tested on: OVCAR-4 ovarian
HL-60(TB) leukemia = tested on: HL-60(TB) leukemia
MDA-N = tested on: MDA-N
UACC-257 melanoma = tested on: UACC-257 melanoma
HOP-62 NSCLC = tested on: HOP-62 NSCLC
OVCAR-5 ovarian = tested on: OVCAR-5 ovarian
A549 NSCLC = tested on: A549 NSCLC
PC-3 prostate = tested on: PC-3 prostate
IGROV1 ovarian = tested on: IGROV1 ovarian
UACC-62 melanoma = tested on: UACC-62 melanoma
SNB-75 CNS = tested on: SNB-75 CNS
SK-MEL-5 melanoma = tested on: SK-MEL-5 melanoma
HCC-2998 colon = tested on: HCC-2998 colon
NCI-H226 lung = tested on: NCI-H226 lung
786-0 renal = tested on: 786-0 renal
OVCAR-3 ovarian = tested on: OVCAR-3 ovarian
SK-OV-3 ovarian = tested on: SK-OV-3 ovarian
CCRF-CEM leukemia = tested on: CCRF-CEM leukemia
MCF7 breast = tested on: MCF7 breast
RPMI-8226 leukemia = tested on: RPMI-8226 leukemia
RXF 393 renal = tested on: RXF 393 renal
U251 CNS = tested on: U251 CNS
UO-31 renal = tested on: UO-31 renal
HS 578T breast = tested on: HS 578T breast
ACHN renal = tested on: ACHN renal
SF-539 CNS = tested on: SF-539 CNS
HT29 colon = tested on: HT29 colon
EKVX NSCLC = tested on: EKVX NSCLC
SK-MEL-2 melanoma = tested on: SK-MEL-2 melanoma
TK-10 renal = tested on: TK-10 renal
KM12 colon = tested on: KM12 colon
COLO 205 colon = tested on: COLO 205 colon
HCT-116 colon = tested on: HCT-116 colon
NCI-H460 lung = tested on: NCI-H460 lung
OVCAR-8 ovarian = tested on: OVCAR-8 ovarian
MOLT-4 leukemia = tested on: MOLT-4 leukemia
A498 renal = tested on: A498 renal
T-47D breast = tested on: T-47D breast
MDA-MB-435 = tested on: MDA-MB-435
SF-295 CNS = tested on: SF-295 CNS
NCI-H522 lung = tested on: NCI-H522 lung
SK-MEL-28 melanoma = tested on: SK-MEL-28 melanoma
SNB-19 CNS = tested on: SNB-19 CNS
NCI/ADR-RES ovarian = tested on: NCI/ADR-RES ovarian
LOX IMVI melanoma = tested on: LOX IMVI melanoma
BT-549 breast = tested on: BT-549 breast
NCI-H23 lung = tested on: NCI-H23 lung
M14 melanoma = tested on: M14 melanoma
SF-268 CNS = tested on: SF-268 CNS
HCT-15 colon = tested on: HCT-15 colon
SN12C renal = tested on: SN12C renal
MALME-3M melanoma = tested on: MALME-3M melanoma
MDA-MB-231 breast = tested on: MDA-MB-231 breast

## CC(C)(CNC(=O)/C(Cl)=C(/Cl)C(=O)O)CNC(=O)/C(Cl)=C(/Cl)C(=O)O
CAKI-1 renal
  TGI: > 100 µM
DU-145 prostate
  TGI: > 100 µM
K-562 leukemia
  TGI: > 100 µM
SW-620 colon
  TGI: > 100 µM
HOP-92 NSCLC
  TGI: > 100 µM
SR leukemia
  TGI: > 100 µM
OVCAR-4 ovarian
  TGI: > 100 µM
HL-60(TB) leukemia
  TGI: > 100 µM
MDA-N
  TGI: > 100 µM
UACC-257 melanoma
  TGI: > 100 µM
HOP-62 NSCLC
  TGI: > 100 µM
OVCAR-5 ovarian
  TGI: > 100 µM
A549 NSCLC
  TGI: > 100 µM
PC-3 prostate
  TGI: > 100 µM
IGROV1 ovarian
  TGI: > 100 µM
UACC-62 melanoma
  TGI: > 100 µM
SNB-75 CNS
  TGI: > 100 µM
SK-MEL-5 melanoma
  TGI: > 100 µM
HCC-2998 colon
  TGI: > 100 µM
NCI-H226 lung
  TGI: > 100 µM
786-0 renal
  TGI: > 100 µM
OVCAR-3 ovarian
  TGI: > 100 µM
SK-OV-3 ovarian
  TGI: > 100 µM
CCRF-CEM leukemia
  TGI: > 100 µM
MCF7 breast
  TGI: > 100 µM
RPMI-8226 leukemia
  TGI: 76.3 µM
RXF 393 renal
  TGI: > 100 µM
U251 CNS
  TGI: > 100 µM
UO-31 renal
  TGI: > 100 µM
HS 578T breast
  TGI: > 100 µM
ACHN renal
  TGI: 60.3 µM
SF-539 CNS
  TGI: > 100 µM
HT29 colon
  TGI: > 100 µM
EKVX NSCLC
  TGI: > 100 µM
SK-MEL-2 melanoma
  TGI: > 100 µM
TK-10 renal
  TGI: > 100 µM
KM12 colon
  TGI: > 100 µM
COLO 205 colon
  TGI: 35.6 µM
HCT-116 colon
  TGI: > 100 µM
NCI-H460 lung
  TGI: > 100 µM
OVCAR-8 ovarian
  TGI: > 100 µM
MOLT-4 leukemia
  TGI: > 100 µM
A498 renal
  TGI: > 100 µM
T-47D breast
  TGI: > 100 µM
MDA-MB-435
  TGI: > 100 µM
SF-295 CNS
  TGI: > 100 µM
NCI-H522 lung
  TGI: > 100 µM
SK-MEL-28 melanoma
  TGI: > 100 µM
SNB-19 CNS
  TGI: > 100 µM
NCI/ADR-RES ovarian
  TGI: > 100 µM
LOX IMVI melanoma
  TGI: > 100 µM
BT-549 breast
  TGI: > 100 µM

## CCn1c(O)c(C=Nc2ccccc2)s/c1=N/Nc1ncc(CC(=O)Nc2ccccc2C)s1
CAKI-1 renal
  TGI: > 100 µM
DU-145 prostate
  TGI: > 100 µM
K-562 leukemia
  TGI: > 100 µM
SW-620 colon
  TGI: > 100 µM
HOP-92 NSCLC
  TGI: > 100 µM
SR leukemia
  TGI: > 100 µM
OVCAR-4 ovarian
  TGI: > 100 µM
HL-60(TB) leukemia
  TGI: > 100 µM
MDA-N
  TGI: > 100 µM
UACC-257 melanoma
  TGI: > 100 µM
HOP-62 NSCLC
  TGI: > 100 µM
OVCAR-5 ovarian
  TGI: > 100 µM
A549 NSCLC
  TGI: > 100 µM
PC-3 prostate
  TGI: > 100 µM
IGROV1 ovarian
  TGI: > 100 µM
UACC-62 melanoma
  TGI: > 100 µM
SNB-75 CNS
  TGI: > 100 µM
SK-MEL-5 melanoma
  TGI: > 100 µM
HCC-2998 colon
  TGI: > 100 µM
NCI-H226 lung
  TGI: > 100 µM
786-0 renal
  TGI: > 100 µM
OVCAR-3 ovarian
  TGI: > 100 µM
NCI-H23 lung
  TGI: > 100 µM
SK-OV-3 ovarian
  TGI: > 100 µM
CCRF-CEM leukemia
  TGI: > 100 µM
MCF7 breast
  TGI: > 100 µM
RPMI-8226 leukemia
  TGI: > 100 µM
M14 melanoma
  TGI: > 100 µM
RXF 393 renal
  TGI: > 100 µM
SF-268 CNS
  TGI: > 100 µM
U251 CNS
  TGI: > 100 µM
HCT-15 colon
  TGI: > 100 µM
UO-31 renal
  TGI: > 100 µM
HS 578T breast
  TGI: > 100 µM
ACHN renal
  TGI: > 100 µM
SF-539 CNS
  TGI: > 100 µM
HT29 colon
  TGI: > 100 µM
EKVX NSCLC
  TGI: > 100 µM
SK-MEL-2 melanoma
  TGI: > 100 µM
TK-10 renal
  TGI: > 100 µM
KM12 colon
  TGI: > 100 µM
COLO 205 colon
  TGI: > 100 µM
HCT-116 colon
  TGI: > 100 µM
SN12C renal
  TGI: > 100 µM
NCI-H460 lung
  TGI: > 100 µM
OVCAR-8 ovarian
  TGI: > 100 µM
MOLT-4 leukemia
  TGI: > 100 µM
A498 renal
  TGI: > 100 µM
MALME-3M melanoma
  TGI: > 100 µM
T-47D breast
  TGI: > 100 µM
MDA-MB-435
  TGI: > 100 µM
MDA-MB-231 breast
  TGI: > 100 µM
SF-295 CNS
  TGI: > 100 µM
NCI-H522 lung
  TGI: > 100 µM
SK-MEL-28 melanoma
  TGI: > 100 µM
SNB-19 CNS
  TGI: > 100 µM
NCI/ADR-RES ovarian
  TGI: > 100 µM
LOX IMVI melanoma
  TGI: > 100 µM

## CCC(=O)Nc1ccc(NCC(=O)Nc2ccc(Cl)cc2)cc1
CAKI-1 renal
  TGI: 53.7 µM
DU-145 prostate
  TGI: 35.6 µM
K-562 leukemia
  TGI: > 100 µM
SW-620 colon
  TGI: 74.9 µM
HOP-92 NSCLC
  TGI: 33.4 µM
SR leukemia
  TGI: 94.1 µM
OVCAR-4 ovarian
  TGI: 33.3 µM
HL-60(TB) leukemia
  TGI: 42.7 µM
MDA-N
  TGI: 35.3 µM
UACC-257 melanoma
  TGI: 36.8 µM
HOP-62 NSCLC
  TGI: 30.7 µM
OVCAR-5 ovarian
  TGI: 32.1 µM
A549 NSCLC
  TGI: 56.5 µM
PC-3 prostate
  TGI: 31.8 µM
IGROV1 ovarian
  TGI: 64.4 µM
UACC-62 melanoma
  TGI: 26.6 µM
SNB-75 CNS
  TGI: 64.6 µM
SK-MEL-5 melanoma
  TGI: 30.7 µM
HCC-2998 colon
  TGI: 26.7 µM
NCI-H226 lung
  TGI: 53.5 µM
786-0 renal
  TGI: 35.7 µM
OVCAR-3 ovarian
  TGI: 33.6 µM
NCI-H23 lung
  TGI: 38.9 µM
SK-OV-3 ovarian
  TGI: 64.1 µM
CCRF-CEM leukemia
  TGI: 60.3 µM
MCF7 breast
  TGI: 29.8 µM
RPMI-8226 leukemia
  TGI: 70.3 µM
M14 melanoma
  TGI: 29.3 µM
RXF 393 renal
  TGI: 35.6 µM
SF-268 CNS
  TGI: 55.4 µM
HCT-15 colon
  TGI: 36.4 µM
UO-31 renal
  TGI: 78.9 µM
HS 578T breast
  TGI: > 100 µM
ACHN renal
  TGI: 27.9 µM
SF-539 CNS
  TGI: 36.8 µM
HT29 colon
  TGI: 28 µM
EKVX NSCLC
  TGI: 28.2 µM
SK-MEL-2 melanoma
  TGI: 30.8 µM
KM12 colon
  TGI: 33 µM
COLO 205 colon
  TGI: 35.5 µM
HCT-116 colon
  TGI: 30.4 µM
SN12C renal
  TGI: 35.3 µM
OVCAR-8 ovarian
  TGI: 94.4 µM
MOLT-4 leukemia
  TGI: 98.2 µM
A498 renal
  TGI: 46 µM
MALME-3M melanoma
  TGI: 34.8 µM
T-47D breast
  TGI: 29.8 µM
MDA-MB-435
  TGI: 33.2 µM
SF-295 CNS
  TGI: > 100 µM
NCI-H522 lung
  TGI: 30.2 µM
SK-MEL-28 melanoma
  TGI: 42.6 µM
SNB-19 CNS
  TGI: 42 µM
NCI/ADR-RES ovarian
  TGI: 93.6 µM
LOX IMVI melanoma
  TGI: 27.4 µM
BT-549 breast
  TGI: 48.6 µM

Reference: PubChem BioAssay (NCI)
